Assay results as given in ChEMBL document CHEMBL4229526, “Quinoxaline derivatives as potential antitrypanosomal and antileishmanial agents” (Bioorg Med Chem, 2018).

Tests used:
Leishmania donovani [1] = assay: Potency index, ratio of amphotericin B IC50 to test compound IC50 for Leishmania donovani MHOM/SD/62/1S-CL2D LdBOB axenic amastigotes harboring eGFP; type: functional
Leishmania donovani [2] = assay: Potency index, ratio of miltefosine IC50 to test compound IC50 for Leishmania donovani MHOM/SD/62/1S-CL2D LdBOB axenic amastigotes harboring eGFP; type: functional
H9c2 = assay: Cytotoxicity against rat H9c2 cells infected with Trypanosoma cruzi Tulahuen amastigote forms assessed as reduction in cell number after 72 hrs by DRAQ5 DNA dye based confocal microscopic analysis; settings: H9c2, 72 h
Trypanosoma cruzi [3] = assay: Antitrypanosomal activity against Trypanosoma cruzi Tulahuen amastigote forms infected in rat H9c2 cells assessed as reduction in infected cells after 72 hrs by DRAQ5 DNA dye based confocal microscopic analysis; type: functional, organism-based; settings: H9c2, 72 h
Trypanosoma brucei = assay: Antitrypanosomal activity against Trypanosoma brucei Lister 427 bloodstream forms after 48 hrs by resazurin dye based fluorescence assay; type: functional, organism-based; settings: Lister 427, 48 h
Leishmania donovani [4] = assay: Antileishmanial activity against Leishmania donovani MHOM/SD/62/1S-CL2D LdBOB axenic amastigotes harboring eGFP after 72 hrs by resazurin dye based fluorescence assay; type: functional, organism-based
Leishmania donovani [5] = assay: Antileishmanial activity against Leishmania donovani MHOM/SD/62/1S-CL2D LdBOB amastigotes harboring eGFP infected in human THP1 cells assessed as reduction in number of amastigotes per cell after 96 hrs by DAPI staining based microscopic analysis; type: functional, organism-based; settings: THP-1, 96 h
Trypanosoma cruzi [6] = assay: Antitrypanosomal activity against Trypanosoma cruzi Tulahuen trypomastigote forms infected in monkey LLC-MK2 cells after 24 hrs by CellTiter-Glo luminescent cell viability assay; type: functional, organism-based; settings: LLC-MK2, 24 h
[7] = Cytotoxicity against human HepG2 cells after 48 hrs by CellTiter-Glo cell viability assay; type: cell-based
Leishmania donovani [8] = assay: Antileishmanial activity against Leishmania donovani MHOM/SD/62/1S-CL2D LdBOB amastigotes harboring eGFP infected in human THP1 cells assessed as reduction in infected cells after 96 hrs by DAPI staining based microscopic analysis; type: functional, organism-based; settings: THP-1, 96 h
Trypanosoma cruzi [9] = assay: Antitrypanosomal activity against Trypanosoma cruzi Tulahuen amastigote forms infected in rat H9c2 cells assessed as reduction in amastigote number per cell after 72 hrs by DRAQ5 DNA dye based confocal microscopic analysis; type: functional, organism-based; settings: H9c2, 72 h
THP-1 = assay: Cytotoxicity against human THP1 cells infected with Leishmania donovani MHOM/SD/62/1S-CL2D LdBOB amastigotes harboring eGFP assessed as reduction in cell number after 96 hrs by DAPI staining based microscopic analysis; settings: THP-1, 96 h

Compound	Ratio IC50 (Leishmania donovani [1])	Ratio IC50 (Leishmania donovani [2])	IC50 (H9c2) [µM]	IC50 (Trypanosoma cruzi [3]) [µM]	IC50 (Trypanosoma brucei) [µM]	IC50 (Leishmania donovani [4]) [µM]	IC50 (Leishmania donovani [5]) [µM]	IC50 (Trypanosoma cruzi [6]) [µM]	CC50 at 48 h [7] [µM]	IC50 (Leishmania donovani [8]) [µM]	IC50 (Trypanosoma cruzi [9]) [µM]	IC50 (THP-1) [µM]
CS(=O)(=O)c1ccc(-c2nc3ccc(Cl)cc3nc2-c2ccc(Cl)cc2)cc1	5.3	26.3	1.58	2	2.51	0.32	5.01	0.09	2	5.01	2	1.58
CS(=O)(=O)c1ccc(-c2nc3ccc(Br)cc3nc2-c2ccc(Cl)cc2)cc1	5.3	26.3	1.26	2	1.26	0.32	2.51	0.06	2	3.98	2	2
C[S+]([O-])c1ccc(-c2nc3ccc(Cl)cc3nc2-c2ccc(Cl)cc2)cc1 (stereo unspecified)	5.3	26.3	1.58	2	0.63	0.32	3.98	0.1	1.58	3.16	1.58	1.58
